Assay results taken from PubChem BioAssay AID1963834 (Molecular Pharmacology Branch, DTP, NCI, 2024).

Test system: 873145-292-R-J1-PDC complex spheroid viability
Assay: Anticancer human tumor 873145-292-R-J1-PDC patient-derived renal clear cell carcinoma cell line growth inhibition [POLQ]
Conditions: for IC50: curve of first compound; for viability, T/C: stronger effect = lower value; active means viability on the fitted dose curve at most 10% of control; inactive means the rest
Procedure: Multicellular complex tumor spheroid response to Polymerase (POL) inhibitors (novobiocin, ART-558, RP6685) in combination with a variety of drugs and investigational agents in selected tumor cell lines
The POL inhibitors (novobiocin, ART-558, and RP6685) were evaluated both individually and in combination with standard of care and investigational anticancer small molecules within a complex spheroid model of solid tumors. . Complex spheroids include a stromal component modeled by human endothelial cells (HUVEC) and fibroblasts modeled by human mesenchymal stem cells (MSCs). The concentration ranges selected for each drug and investigational agent were based upon clinically achievable concentrations if the clinical Cmax of the agent was known.
Compounds. The drugs and investigational agents: novobiocin (NSC847541), ART-558 (NSC835418), RP-6685 (NSC848927), peposertib (NSC802822), ceralasertib (NSC780249), elimusertib (NSC800525), camonsertib (NSC841442), AZD-1390 (NSC803789), olaparib (NSC753686), talazoparib (NSC767125), rucaparib (NSC756644), sotorasib (NSC818433), MRTX-1133 (NSC836407), SN-38 (NSC673596), topotecan (NSC609699), epotoside (NSC141540), doxorubicin (NSC123127), gemcitabine (NSC613327), 5-fluorouracil (NSC19893), paclitaxel (NSC125973), vemurafenib (NSC761431), MSA-2 (NSC828583), SN-011 (NSC837082), adavosertib (NSC754352), prexasertib (NSC758257), carboplatin (NSC241240) and oxaliplatin (NSC266046), were obtained from the National Cancer Institute (NCI) Developmental Therapeutics Program Chemical Repository (21). The FDA-approved anticancer drug set is available from the Developmental Therapeutics Program at https://dtp.cancer.gov/organization/dscb/obtaining/. […] The stock solutions were prepared in dimethyl sulfoxide (DMSO, Sigma-Aldrich, St. Louis, MO, cat. D2650), except for the platinum compounds which were prepared in saline (Quality Biological, Gaithersburg, MD, cat. 114-055-101), at 800-fold the tested concentration and stored at -70 degrees C prior to their use. All drugs and investigational agents were tested over a range starting from a high concentration at or near the clinical Cmax and decreasing in half-log increments. If the clinical Cmax for an agent had not been determined, the highest concentration tested was 10 microM, except for SN-38, which was tested at a high concentration of 1 microM.
Cell Culture. All cells were maintained in an incubator at 37 degrees C and 5% CO2 with 95% humidity. The PDC lines were cultured according to standard operating procedures established by the NCI PDMR (https://pdmr.cancer.gov). Table 3 of the manuscript, lists the cell lines along with the number of the three cell types plated to form the mct-spheroids and media for tumor cell growth. After thawing, all PDC lines, except 997537-175-T-J1-PDC and 415267-285-R-J2-PDC, were cultured in Matrigel-coated flasks prepared with a working solution of 1X Ham's F-12 nutrient mix, without supplementation (Thermo Fisher Scientific, cat. 11765054), 100 U/mL penicillin-streptomycin (Thermo Fisher Scientific, cat. 15140122), and 2.5% Matrigel (Corning Inc., Corning, NY, cat. 354248) for the first three passages. The two PDC lines 997537-175-T-J1-PDC and 415267-285-R-J2-PDC were cultured on uncoated flasks. The 857933-349-R-J2-PDC line was cultured in 6C/Colon 1B media containing advanced DMEM/F-12 (Thermo Fisher Scientific, cat. 12634028), 10 mM HEPES (Thermo Fisher Scientific, cat. 15630080), 1X GlutaMAX supplement (Thermo Fisher Scientific, cat. 35050061), 0.1 mg/mL primocin (InvivoGen, San Diego, CA, cat. ant-pm-2), 10% defined fetal bovine serum, heat inactivated (HyClone Laboratories Inc., Logan, UT, cat. SH30070.03HI), 50% L-WRN conditioned media (ATCC, cat. CRL-3276), 1.25 mM N-Acetyl-L-cysteine (Sigma-Aldrich, cat. A9165), 10 mM nicotinamide (Sigma-Aldrich, cat. N0636), 1X B-27 supplement (Thermo Fisher Scientific, cat. 17504044), 1X N-2 supplement (Thermo Fisher Scientific, cat. […]

[1] = second compound 0.0316 µM, first compound 0.0316 µM
[2] = second compound 0.0316 µM, first compound 0.1 µM
[3] = second compound 0.0316 µM, first compound 0.316 µM
[4] = second compound 0.0316 µM, first compound 1 µM
[5] = second compound 0.0316 µM, first compound 3.16 µM
[6] = second compound 0.0316 µM, first compound 10 µM
[7] = second compound 0.1 µM, first compound 0.0316 µM
[8] = second compound 0.1 µM, first compound 0.1 µM
[9] = second compound 0.1 µM, first compound 0.316 µM
[10] = second compound 0.1 µM, first compound 1 µM
[11] = second compound 0.1 µM, first compound 3.16 µM
[12] = second compound 0.1 µM, first compound 10 µM
[13] = second compound 0.316 µM, first compound 0.0316 µM
[14] = second compound 0.316 µM, first compound 0.1 µM
[15] = second compound 0.316 µM, first compound 0.316 µM
[16] = second compound 0.316 µM, first compound 1 µM
[17] = second compound 0.316 µM, first compound 3.16 µM
[18] = second compound 0.316 µM, first compound 10 µM
[19] = second compound 1 µM, first compound 0.0316 µM
[20] = second compound 1 µM, first compound 0.1 µM
[21] = second compound 1 µM, first compound 0.316 µM
[22] = second compound 1 µM, first compound 1 µM
[23] = second compound 1 µM, first compound 3.16 µM
[24] = second compound 1 µM, first compound 10 µM
[25] = second compound 3.16 µM, first compound 0.0316 µM
[26] = second compound 3.16 µM, first compound 0.1 µM
[27] = second compound 3.16 µM, first compound 0.316 µM
[28] = second compound 3.16 µM, first compound 1 µM
[29] = second compound 3.16 µM, first compound 3.16 µM
[30] = second compound 3.16 µM, first compound 10 µM
[31] = second compound 10 µM, first compound 0.0316 µM
[32] = second compound 10 µM, first compound 0.1 µM
[33] = second compound 10 µM, first compound 0.316 µM
[34] = second compound 10 µM, first compound 1 µM
[35] = second compound 10 µM, first compound 3.16 µM
[36] = second compound 10 µM, first compound 10 µM
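Further: spheroids exposed to compounds for 7 days before viability readout.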
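Wherever viability, T/C is given: luminescence signal used as surrogate for viable cell content.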

CCCS(=O)(=O)Nc1ccc(F)c(C(=O)c2c[nH]c3ncc(-c4ccc(Cl)cc4)cc23)c1F + COC1C(OC(N)=O)C(O)C(Oc2ccc3c(O)c(NC(=O)c4ccc(O)c(CC=C(C)C)c4)c(=O)oc3c2C)OC1(C)C
inactive: viability, T/C [1] 118% | viability, T/C [2] 98.8% | viability, T/C [3] 99.4% | viability, T/C [4] 107% | viability, T/C [5] 90.7% | viability, T/C [6] 62.5% | viability, T/C [7] 113% | viability, T/C [8] 108% | viability, T/C [9] 108% | viability, T/C [10] 112% | viability, T/C [11] 89.8% | viability, T/C [12] 57.7% | viability, T/C [13] 104% | viability, T/C [14] 92.5% | viability, T/C [15] 98.9% | viability, T/C [16] 99.8% | viability, T/C [17] 94.9% | viability, T/C [18] 57.3% | viability, T/C [19] 96.9% | viability, T/C [20] 111% | viability, T/C [21] 102% | viability, T/C [22] 107% | viability, T/C [23] 94.2% | viability, T/C [24] 60.9% | viability, T/C [25] 102% | viability, T/C [26] 103% | viability, T/C [27] 105% | viability, T/C [28] 91.2% | viability, T/C [29] 89.5% | viability, T/C [30] 53.2% | viability, T/C [31] 89.3% | viability, T/C [32] 93.3% | viability, T/C [33] 98.8% | viability, T/C [34] 106% | viability, T/C [35] 93.2% | viability, T/C [36] 64.7%
> 10 µM: IC50 (second compound 0.0316 µM) | IC50 (second compound 0.1 µM) | IC50 (second compound 0.316 µM) | IC50 (second compound 1 µM) | IC50 (second compound 3.16 µM) | IC50 (second compound 10 µM)

Nc1ccn(C2OC(CO)C(O)C2(F)F)c(=O)n1 (centres undefined) + Cc1cccc(N(C)C(=O)C2C(O)CCN2c2nc(C)cc(C(F)(F)F)c2C#N)c1
9.95 µM: IC50 (second compound 0.0316 µM)
4.94 µM: IC50 (second compound 0.316 µM)
5.41 µM: IC50 (second compound 3.16 µM)
inactive: viability, T/C [1] 67.6% | viability, T/C [2] 58.3% | viability, T/C [3] 51.4% | viability, T/C [4] 53.3% | viability, T/C [5] 53.5% | viability, T/C [6] 52.6% | viability, T/C [7] 82.3% | viability, T/C [8] 68.8% | viability, T/C [9] 51.8% | viability, T/C [10] 59.8% | viability, T/C [11] 55% | viability, T/C [12] 56.1% | viability, T/C [13] 62% | viability, T/C [14] 63.5% | viability, T/C [15] 54.6% | viability, T/C [16] 58.9% | viability, T/C [17] 54.9% | viability, T/C [18] 43.8% | viability, T/C [19] 66.9% | viability, T/C [20] 52.5% | viability, T/C [21] 52.3% | viability, T/C [22] 49.6% | viability, T/C [23] 53.1% | viability, T/C [24] 50.3% | viability, T/C [25] 72.3% | viability, T/C [26] 63.8% | viability, T/C [27] 55.4% | viability, T/C [28] 55.4% | viability, T/C [29] 56.1% | viability, T/C [30] 45.1% | viability, T/C [31] 69.2% | viability, T/C [32] 63.4% | viability, T/C [33] 62.9% | viability, T/C [34] 58.5% | viability, T/C [35] 59.7% | viability, T/C [36] 58.8%
> 10 µM: IC50 (second compound 0.1 µM) | IC50 (second compound 1 µM) | IC50 (second compound 10 µM)
